Test results: patent US5565455A, “Method for treating substance abuse disorders” (priority 1992, dated 1996)
Where a name gives a salt, the structure may show the parent alone. Read-outs that look alike come from different tables or passages of the source.

Key:
5-HT1A = target: T1, 5-HT1A (Homo sapiens, UniProt P08908); test: biochemical; assay type: binding
T1 sequence (P08908 1-422): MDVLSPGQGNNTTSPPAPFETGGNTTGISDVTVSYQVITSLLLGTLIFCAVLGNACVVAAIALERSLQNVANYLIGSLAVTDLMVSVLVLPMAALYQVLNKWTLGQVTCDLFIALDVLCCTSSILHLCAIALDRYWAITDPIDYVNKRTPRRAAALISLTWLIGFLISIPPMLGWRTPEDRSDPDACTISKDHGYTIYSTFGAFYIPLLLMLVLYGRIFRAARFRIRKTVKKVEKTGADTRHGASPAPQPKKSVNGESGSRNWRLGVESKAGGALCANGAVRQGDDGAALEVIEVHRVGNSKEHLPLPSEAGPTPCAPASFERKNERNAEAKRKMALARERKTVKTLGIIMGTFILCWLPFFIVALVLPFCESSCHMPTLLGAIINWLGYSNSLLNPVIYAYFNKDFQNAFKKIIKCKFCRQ

[1] = test system: 5-HT reuptake, synaptosomes from rat frontal cortex; test: Inhibition of reuptake of [3H-5-HT] by synaptosomes from rat frontal cortex; assay type: biochemical; conditions: method of Shank et al.
[2] = test system: Sprague-Dawley rats induced to drink alcohol chronically; test: Alcohol drinking in Sprague-Dawley rats induced by cyanamide injections; assay type: in vivo, rat
Description: To further illustrate the useful pharmacological properties of FG5893, the effect of FG5893 administered systemically was determined in Sprague-Dawley rats induced to drink alcohol chronically by a series of intraperitoneal injections of cyan-amide according to experimental procedures described previously (Critcher, E. C. and R. D. Myers, Alcohol 4:347-353, 1987). Intakes of food and body weights were recorded.
FG5893 in a dose of 0.5, 1.0 and 2.5 mg/kg was administered twice a day for three consecutive days. […] This finding is notable because drugs that attenuate the preference for alcohol consumed in a concentration of pharmacological consequence typically impair the ingestion of food.

5-HT2 = 5-HT2 (Homo sapiens, UniProt P28223); test: Drug affinity for 5-HT2 receptor, radioligand 3H-ketanserin, cerebral cortex
Chain of 5-HT2 (P28223 whole entry, species assumed): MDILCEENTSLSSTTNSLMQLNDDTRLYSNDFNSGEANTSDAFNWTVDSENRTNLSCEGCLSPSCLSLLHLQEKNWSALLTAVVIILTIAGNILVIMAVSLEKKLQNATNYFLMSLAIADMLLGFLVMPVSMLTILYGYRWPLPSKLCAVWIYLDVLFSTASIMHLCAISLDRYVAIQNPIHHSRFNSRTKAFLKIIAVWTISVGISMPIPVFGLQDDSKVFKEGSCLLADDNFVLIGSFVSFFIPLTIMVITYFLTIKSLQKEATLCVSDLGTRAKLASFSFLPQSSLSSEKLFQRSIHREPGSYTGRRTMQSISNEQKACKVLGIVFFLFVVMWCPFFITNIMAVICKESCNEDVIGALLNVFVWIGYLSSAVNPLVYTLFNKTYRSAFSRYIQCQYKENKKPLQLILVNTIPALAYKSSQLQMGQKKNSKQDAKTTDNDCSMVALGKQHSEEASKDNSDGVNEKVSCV

[3] = test system: consumption of alcohol by monkeys; conditions: cited from earlier work
[4] = test system: alcohol-dependent individuals; conditions: cited from earlier work
[5] = test system: voluntary ethanol consumption in rats; conditions: cited from earlier work
[6] = 0.5, 1.0 and 2.5 mg/kg twice a day for three consecutive days, all doses
[7] = clinical trial versus placebo in alcohol-dependent individuals

In the case of `COC(=O)c1cccnc1N1CCN(CCCC(c2ccc(F)cc2)c2ccc(F)cc2)CC1` [FG5893, 2-[4-[4,4-bis(4-fluorophenyl)butyl]-1-piperazinyl]-3-pyridinecarboxylic acid methyl ester dihydrochloride ethylat], the Ki (5-HT1A; Radioligand 3H-8-OH-DPAT, tissue hippocampus) is reported as 0.7 nM, the IC50 [1] is reported as 80 nM and the “intake of alcohol, absolute g/kg” value [2, 6] is reported as “significantly reduced”. The “proportion of alcohol to total fluid intake” value [2, 6] was “significantly reduced”, the “alcohol consumption after the injection sequence” value ([2]; 1.0 and 2.5 mg/kg doses, two 4-day tests immediately following the injection sequence and after a 40-day interval) was “continued to suppress alcohol consumption” and the body weights ([2]; during or after administration) was “Neither body weights nor intakes of food of the rats were affected”. The intakes of food ([2]; during or after administration) was “Neither body weights nor intakes of food of the rats were affected” and the Ki (5-HT2) was 4 nM.
In the case of `O=C1CC2(CCCC2)CC(=O)N1CCCCN1CCN(c2ncccn2)CC1` [Buspirone], the “consumption of alcohol by monkeys” value [3] is listed as “attenuate significantly”, the drop-out rate [4, 7] is listed as “lower drop-out rate” and the signs of craving [4, 7] is listed as “fewer signs of craving”.
For `CN(C)C/C=C(/c1ccc(Br)cc1)c1cccnc1` [Zimelidine], the “ingestion of food and alcohol” value ([5]; concomitantly) is listed as “attenuate”, the “voluntary ethanol consumption in rats” value ([5]; rats) is listed as “potent inhibitory effect” and the “number of abstinent days” value ([4]; human trials) is listed as “increase”. For the same compound, the “number of daily drinks” value ([4]; human trials) was “slight reduction” and the IC50 [1] was 120 nM.
For `CCNC(=O)N1CCN(CCCC(c2ccc(F)cc2)c2ccc(F)cc2)CC1` [Amperozide], the “consumption of food and level of body weight” value ([5]; rat, in vivo) is listed as “without affecting”, the “intake of alcohol in rats” value ([5]; rats) is listed as “significantly attenuate” and the Ki (5-HT1A) is listed as 805 nM. For the same compound, the IC50 [1] was 320 nM and the Ki (5-HT2) was 17 nM.
